Measurements reported in article PMC8085067, “The dimer-monomer equilibrium of SARS-CoV-2 main protease is affected by small molecule inhibitors” (Scientific Reports, 2021).
“Also recorded” adds a separate entry of the source.

Target: SARS-CoV-2 M^pro (Severe acute respiratory syndrome coronavirus 2, UniProt P0DTD1)
Assay: M^pro activity assay and inhibition (fluorogenic substrate)
Assay type: biochemical
Details: for inhibition of M^pro catalytic activity (in words) / slope m of the fluorescence inhibition curve: inhibitor 30 μM; for inhibition of M^pro catalytic activity (in words): fluorescence assay; for slope m of the fluorescence inhibition curve: ≈0.2 μM M^pro, 40 μM substrate, 30 °C, 20 min preincubation, linear fit up to 30 min

| SMILES | inhibition of M^pro catalytic activity (in words) | slope m of the fluorescence inhibition curve | Hill slope n (Hill equation fit of percent inhibition) | IC50 (Hill equation fit of percent inhibition vs inhibitor concentration) [µM] |
| --- | --- | --- | --- | --- |
| Fc1c(F)c(N2CCOCCOCCOCCOCCOCC2)c(F)c(F)c1-c1nc(-c2ccccc2)no1 [Inhibitor 4, 16-(2,3,5,6-tetrafluoro-4-(3-phenyl-1,2,4-oxadiazol-5-yl)phenyl)-1,4,7,10,13-pentaoxa-16-azacyclooctadecane] | irreversible inactivation of the enzyme; also recorded: most effective among the seven inhibitors | 0±6 RFU/min and ≈ 0 RFU/min | – | – |
| OCCN(CCOc1c(F)c(F)c(-c2nc(-c3ccncc3)no2)c(F)c1F)CCOc1c(F)c(F)c(-c2nc(-c3ccncc3)no2)c(F)c1F [Inhibitor 3] | week | 23±3 RFU/min | – | – |
| CCNC(=O)c1noc(-c2c(F)c(F)c(NCCN(CCNc3c(F)c(F)c(-c4nc(C(=O)NCC)no4)c(F)c3F)CCNc3c(F)c(F)c(-c4nc(C(=O)NCC)no4)c(F)c3F)c(F)c2F)n1 [Inhibitor 7, 5,5’,5”-(((nitrilotris(ethane-2,1-diyl))tris(azanediyl))tris(2,3,5,6-tetrafluorobenzene-4,1-diyl))tris(N-ethyl-1,2,4-oxadiazole-3-carboxamide)] | irreversible inactivation of the enzyme; also recorded: promising inhibition effect | 1±3 RFU/min and ≈ 1 RFU/min | 3±1 | 15 ± 2 |
